From ChEMBL document CHEMBL1649437, “Inhaled voriconazole for prevention of invasive pulmonary aspergillosis” (Antimicrob Agents Chemother, 2009)
Active and inactive are the calls of the source. No cut-off for these calls is given here.

Tests used:
[1] = test system: Aspergillus fumigatus; assay: Antifungal activity against Aspergillus fumigatus isolate Af293 infected in immunosuppressed ICR mouse assessed as pulmonary fungal burden at 1 mg/kg, ip once daily administered 1 day post infection measured on day 8 by real-time quantitative PCR; assay type: functional; details: route intraperitoneal
[2] = test system: Aspergillus fumigatus; assay: Antifungal activity against Aspergillus fumigatus isolate Af293 infected in immunosuppressed ICR mouse assessed as conidial equivalents per gram of tissue at 1 mg/kg, ip once daily administered 1 day post infection measured on day 8 by real-time quantitative PCR; assay type: functional; details: route intraperitoneal
[3] = test system: Aspergillus fumigatus; assay: Antifungal activity against Aspergillus fumigatus isolate Af293 infected in immunosuppressed ICR mouse assessed as increased survival of mouse at 1 mg/kg, ip once daily until day 7; assay type: functional; details: route intraperitoneal
[4] = test system: Aspergillus fumigatus; assay: Antifungal activity against Aspergillus fumigatus isolate Af293 infected in immunosuppressed ICR mouse assessed as increased survival of mouse at 1 mg/kg, ip once daily until day 12; assay type: functional; details: route intraperitoneal
[5] = test system: Aspergillus fumigatus; assay: Antifungal activity against Aspergillus fumigatus isolate Af293 infected in immunosuppressed ICR mouse assessed as median survival time at 1 mg/kg, ip once daily; assay type: functional; details: route intraperitoneal
[6] = test system: Aspergillus fumigatus; assay: Antifungal activity against Aspergillus fumigatus isolate Af293 infected in immunosuppressed ICR mouse assessed as median survival time at 3 mg/kg, ip once daily; assay type: functional; details: route intraperitoneal
[7] = test system: Aspergillus fumigatus; assay: Antifungal activity against Aspergillus fumigatus isolate Af293 infected in immunosuppressed ICR mouse assessed as decrease in invasive lung disease at 6.25 mg/ml twice daily administered 2 days prior to infection via nebulization measured on day 8 by light microscopic analysis; assay type: functional, organism-based
[8] = test system: Aspergillus fumigatus; assay: Antifungal activity against Aspergillus fumigatus isolate Af293 infected in immunosuppressed ICR mouse assessed as assessed as decrease in invasive lung disease at 1 mg/kg, ip once daily measured on day 8 by light microscopic analysis; assay type: functional, organism-based; parameters: dose 1 mg/kg
[9] = test system: Aspergillus fumigatus; assay: Antifungal activity against Aspergillus fumigatus isolate Af293 infected in immunosuppressed ICR mouse assessed as decreased lung vascular damage at 1 mg/kg, ip once daily measured on day 8 by histopathological analysis; assay type: functional, organism-based; parameters: dose 1 mg/kg
[10] = test system: Aspergillus fumigatus; assay: Antifungal activity against Aspergillus fumigatus isolate Af293 infected in immunosuppressed ICR mouse assessed as assessed as decrease in invasive lung disease at 1 mg/kg, ip once daily measured on day 12 by light microscopic analysis; assay type: functional, organism-based; parameters: dose 1 mg/kg
[11] = test system: Aspergillus fumigatus; assay: Antifungal activity against Aspergillus fumigatus isolate Af293 infected in immunosuppressed ICR mouse assessed as decreased lung vascular damage at 1 mg/kg, ip once daily measured on day 12 by histopathological analysis; assay type: functional, organism-based; parameters: dose 1 mg/kg
[12] = test system: Mus musculus; assay: Toxicity in immunosuppressed ICR mouse assessed as lung injury at 6.25 mg/ml twice daily administered 2 days prior to infection via nebulization; assay type: organism-based; details: in vivo, inhaled_or_intranasal, 48 h
[13] = test system: Aspergillus fumigatus; assay: Antifungal activity against Aspergillus fumigatus isolate Af293 infected in immunosuppressed ICR mouse assessed as pulmonary fungal burden at 6.25 mg/ml twice daily administered 2 days prior to infection via nebulization measured on day 8 by real-time quantitative PCR; assay type: functional
[14] = test system: Aspergillus fumigatus; assay: Antifungal activity against Aspergillus fumigatus isolate Af293 infected in immunosuppressed ICR mouse assessed as conidial equivalents per gram of tissue at 6.25 mg/ml twice daily administered 2 days prior to infection via nebulization measured on day 8 by real-time quantitative PCR; assay type: functional
[15] = test system: Aspergillus fumigatus; assay: Antifungal activity against Aspergillus fumigatus isolate Af293 infected in immunosuppressed ICR mouse assessed as increased survival of mouse at 6.25 mg/ml twice daily administered 2 days prior to infection via nebulization until day 7 (Rvb= 25%); assay type: functional
[16] = test system: Aspergillus fumigatus; assay: Antifungal activity against Aspergillus fumigatus isolate Af293 infected in immunosuppressed ICR mouse assessed as increased survival of mouse at 6.25 mg/ml twice daily administered 2 days prior to infection via nebulization until day 12 (Rvb= 17%); assay type: functional
[17] = test system: Aspergillus fumigatus; assay: Antifungal activity against Aspergillus fumigatus isolate Af293 infected in immunosuppressed ICR mouse assessed as median survival time at 6.25 mg/ml twice daily 2 days prior to infection via nebulization; assay type: functional
[18] = test system: Aspergillus fumigatus; assay: Antifungal activity against Aspergillus fumigatus isolate Af293 infected in immunosuppressed ICR mouse assessed as decreased lung vascular damage at 6.25 mg/ml twice daily administered 2 days prior to infection via nebulization measured on day 8 by histopathological analysis; assay type: functional, organism-based
[19] = test system: Aspergillus fumigatus; assay: Antifungal activity against Aspergillus fumigatus isolate Af293 infected in immunosuppressed ICR mouse assessed as decrease in invasive lung disease at 6.25 mg/ml twice daily administered 2 days prior to infection via nebulization measured on day 12 by light microscopic analysis; assay type: functional, organism-based
[20] = test system: Aspergillus fumigatus; assay: Antifungal activity against Aspergillus fumigatus isolate Af293 infected in immunosuppressed ICR mouse assessed as decreased lung vascular damage at 6.25 mg/ml twice daily administered 2 days prior to infection via nebulization measured on day 12 by histopathological analysis; assay type: functional, organism-based
[21] = Cmax in mouse lung; assay type: ADME, organism-based
[22] = Cmax in mouse serum; assay type: ADME, organism-based
[23] = test system: Mus musculus; assay: Toxicity in immunosuppressed ICR mouse assessed as inflammatory changes at 6.25 mg/ml twice daily administered 2 days prior to infection via nebulization; assay type: organism-based; details: in vivo, inhaled_or_intranasal, 48 h

## C[C@@H]1[C@H](O)[C@@H](C)/C=C/C=C/C=C/C=C/C=C/C=C/C=C/[C@H](O[C@@H]2O[C@H](C)[C@@H](O)[C@H](N)[C@@H]2O)C[C@@H]2O[C@](O)(C[C@@H](O)C[C@@H](O)[C@H](O)CC[C@@H](O)C[C@@H](O)CC(=O)O[C@H]1C)C[C@H](O)[C@H]2C(=O)O [AMPHOTERICIN B]
[1]
  log10cfu: 4.33
[2]
  Activity: 5.26
[3]
  Activity: 31%
[4]
  Activity: 23%
[5]
  Time: 7 days
[6]
  Activity: 50%
[7]
  Activity: Active
[8]
  Activity: inactive
[9]
  Activity: inactive
[10]
  Activity: inactive
[11]
  Activity: inactive

## C[C@@H](c1ncncc1F)[C@](O)(Cn1cncn1)c1ccc(F)cc1F [VORICONAZOLE]
[12]
  Activity: Non-toxic
[13]
  log10cfu: 4.21
[14]
  Activity: 5.24
[15]
  Activity: 92%
[16]
  Activity: 67%
[17]
  Time: >12 days
[18]
  Activity: Active
[19]
  Activity: Active
[20]
  Activity: Active
[21]
  Cmax: 6730 ng/g
[22]
  Cmax: 2320 ng/mL
[23]
  Activity: Non-toxic
